Data taken from EP2210584A1, “Stable polymeric composition comprising an epothilone and an amphiphilic block copolymer” (priority 2009, dated 2010).

Experiment: Detection of degradation products of sagopilone by HPLC chromatogram
Format: physicochemical
Conditions: storage of 24 hours at 4°C
Method: The method for measuring the sagopilone content of the micellar dispersions as well as the detection of degradation products is determined by High Performance Liquid Chromatography. The analysis was done on a Agilent 1100 Series chromatography system consisting of a quaternary pump, an autoinjector, a column heater and a UV-detector from Agilent Technologies, Santa Clara, USA .

C=CC[C@H]1C(=O)C(C)(C)[C@@H](O)CC(=O)O[C@H](c2ccc3sc(C)nc3c2)C[C@@H]2O[C@]2(C)CCC[C@H](C)[C@@H]1O [Sagopilone, (1S,3S,7S,10R,11S,12S,16R)-7,11-dihydroxy-10-(prop-2-en-1-yl)-3-(2-methylbenzothiazol-5-yl)-8,8,12,16-tetramethyl-4,17-dioxabicyclo[14.1.0]heptadecane-5,9-dione]
degradation of Sagopilone solubilized within the polymeric micelles: did not degrade
